Measured values: patent US11993575B1, “Ethyl [4,4-bis(4-bromophenyl)-2,5-dioxoimidazolidin-1-yl]acetate as an antimicrobial compound” (KING FAISAL UNIVERSITY, priority 2023, dated 2024)

Legend:
Format in all cases: cell-based
Details in all cases: after 10, 20, 40 and 60 minutes at all dilutions 1:100, 1:200, 1:400, 1:800
Pseudomonas aeruginosa = test: Antimicrobial testing by agar dilution, Pseudomonas aeruginosa
Protocol: (§1) The antimicrobial properties of the ethyl [4,4-bis(4-bromophenyl)-2,5-dioxoimidazolidin-1-yl]acetate was studied by the method of agar dilution. Test solutions of each compound was prepared in concentration of 1% using dimethylformamide as a solvent then they are diluted in physiological solution to obtain the final experimental dilutions 1:100, 1:200, 1:400, 1:800. The effect of these substances are compared with furacillin in a controllable study. The testing microbes used were gram positive bacteria Staphylococcus aureus, gram negative bacteria Escherichia coli, Pseudomonas aeruginosa and Candida albicans fungi were taken. The experiments used for this survey were meat-pentonlu agar (EPA) for cultivation of bacteria and Saburo environment for fungi. Each experiment used 1 ml of test solution on each plate 500 min. Add 2 drops of emulsified with microbes feel. All experimental samples were taken from the agar after 10, 20, 40, 60 minutes in the environment on the basis of Patrk planted. Bacteria were cultivated at a temperature of 37° C. for 1 day and the mushroom was kept in a thermostat for […] at a temperature of 28° C. Then the results were checked.

Escherichia coli = test: Antimicrobial testing by agar dilution, Escherichia coli
Protocol: as §1

Candida albicans = test: Antimicrobial testing by agar dilution, Candida albicans
Protocol: as §1

Staphylococcus aureus = test: Antimicrobial testing by agar dilution, Staphylococcus aureus
Protocol: as §1

Measured: inhibition activity

CCOC(=O)CN1C(=O)NC(c2ccc(Br)cc2)(c2ccc(Br)cc2)C1=O [ethyl [4,4-bis(4-bromophenyl)-2,5-dioxoimidazolidin-1-yl]acetate]
higher inhibition activity: all assays above
